Assay results taken from patent US6613875B1, “Cyclic peptide tube” (The Scripps Research Institute, priority 1993, dated 2003).
Square brackets hold non-standard residues; d marks the D form.

Experiment: Single channel conductance, micro patch clamp on planar lipid bilayers
Assay type: biochemical
Conditions: for single channel conductance: peptide in the range of 10^−7 M in the subphase
Excerpt: FIG. 26 illustrates a 140 second continuous K^+ single channel conductance recording at 50 mV of the channel forming compounds indicated in FIG. 24. Open-closed transitions indicate gating mechanisms which may reflect structural flexibility or rapid assembly-disassembly of the tubular membrane channel structures. Short and long channel life times in the open state could be distinguished with values of t(short)=0.71±0.03 ms and t(long)=37.14±8.99 ms (total number of events 510) with an overall open probability P(O) of 0.29. Peptide concentration at the subphase was 1.0×10^−7 M. As is expected for any such self-assembling channel forming species, channel opening lifetimes show significant dependence on the peptide concentration. Raising the added peptide concentration in the subphase to 2.0×10^−5 M, produces open channel lifetimes of […] >30 seconds.
Formation of transmembrane channels was also inferred from its highly efficient proton transport activity. Vesicles were prepared having pH 6.5 inside and pH 5.5 in the outside bulk solution. The collapse of the imposed pH gradient in these vesicles, upon formation of the putative transmembrane channel structure, was studied by monitoring the fluorescence intensity of an entrapped pH-sensitive dye. (V.E. Carmichael et al, in J.Am. Chem. Soc. (1989), vol. 111, pages 767-769). […] Unilamellar vesicles were prepared by the reverse-phase evaporation using DPPC, OPPC, cholestrol in the ratio of 1:1:2 in a solution containing 5(6)-carboxyfluorescein (20 mM in phosphate/saline buffer: 137 mM NaCl, 2.6 mM KCl, 6.4 mM Na2HPO4, 1.4 mM KH2PO4, pH 6.5) according to the method of F. Szoka et al. in Proc. Natl. Acad. Sci. USA (1978), vol. 75, pages 4194-4198. Liposomes were then sized by multiple extrusions through Nucleopore® polycarbonate membranes (10 times, 50 psi, using 0.8 and 2×0.4 micron filter stacks) and the untrapped 5(6)-carboxyfluorescein was removed by size exclusion chromatography (Sephadex G-25 column 1×30 cm) using the same phosphate/saline buffer according to the method of F. Olson et al. in Biochim. Biophys. Acta (1979), vol. 557, pages 9-23. Vesicles formed in this way are approximately 150 nanometer in diameter as determined by electron microscopy. (R. R. C. New, Ed. Liposomes, Oxford university Press, 1990). In each experiment, 70 ml of the stock vesicle solution (3.5×10^−3 M in phospholipids) was added to pH 5.5 buffer (1.3 ml, 137 mM NaCl, 2.6 mM KCl, 6.4 Na2HPO4, 1.4 KH2PO4) and placed in a 1 cm quartz cuvett inside a stirring thermojacketed sample holder of the florescence instrument and equilibrated at 25° C. for 15 minutes with gentle stirring. To the cuvett, through an injector port, […] of the channel forming compounds in DMSO was added with continuous fluorescence monitoring at 520 nm (excitation at 470 nm). The observed data were then normalized for comparison into the fractional change in fluorescence ((I0−It)/(I0−I∞)) (V. E. Carmichael et al, in J.Am. Chem. Soc. (1989), vol. 111, pages 767-769)). […] The lipid bilayers used were formed on the tip of patch pipettes using a mixture of synthetic POPE: POPS (4:1) (1-palmitoyl-2-oleoyl-Sn-glycero-3-phosphatidylethano lamine and -serine). Five to 10 ml of the peptide solution (1.0×10^−7 or 2.0×10^−6 M in 25% DMSO in buffer solution containing 500 mM NaCl or KCl, 5 mM CaCl2, 10 mM HEPES, pH 7.5) was added to 150 ml subphase volume resulting in spontaneous partitioning of the peptide into the membrane. Ion channels formed spontaneously after peptide was added to the subphase of lipid bilayers. […] Data acquisition and analysis were performed on a Gateway 2000/486 computer using pClamp software package and TL-1 labmaster interface. Acquisition rate was 0.1 ms and data were filtered at 2 kHz.
The ultimate test in establishing and quantitating the transport efficiency of a membrane channel structure is to measure its single channel conductance using micro patch clamp techniques. […]

[1] = K^+ recording at 50 mV, peptide 1.0×10^−7 M in subphase, 510 events

Substance | single channel conductance (500 mM KCl) | single channel conductance (500 mM NaCl) | actual rate of channel-mediated ion transport (K^+) | overall open probability P(O) (K^+ recording at 50 mV, peptide 1.0×10^−7 M in subphase) | channel life time in the open state, t(long) [1] | channel life time in the open state, t(short) [1] | actual rate of channel-mediated ion transport (Na^+) | rate of ion transport relative to gramicidin A under similar conditions (gramicidin A value from literature) | dependence of single channel conductance on applied voltage (measured range of 10-100 mV) | open channel lifetimes (peptide concentration in the subphase raised to 2.0×10^−5 M) | ion channel activity observed (membranes with activity) (symmetrical solutions of 500 mM NaCl or KCl, 5 mM CaCl2, 10 mM HEPES, pH 7.5) | ion transport rate / efficiency (single ion channel recordings)
cyclo[-(Trp-D-Leu)3-Gln-D-Leu-] (cyclo(W[dL]W[dL]W[dL]Q[dL]); SMILES CC(C)C[C@H]1NC(=O)[C@H](CCC(N)=O)NC(=O)[C@@H](CC(C)C)NC(=O)[C@H](Cc2c[nH]c3ccccc23)NC(=O)[C@@H](CC(C)C)NC(=O)[C@H](Cc2c[nH]c3ccccc23)NC(=O)[C@@H](CC(C)C)NC(=O)[C@H](Cc2c[nH]c3ccccc23)NC1=O) [eight residue ion channel forming cyclic peptide, approximately 7.5 Å pore] | ~65 pS | approximately 55 pS | 2.2×10^7 ion.sec^−1 | 0.29 | 37.14 ± 8.99 ms | 0.71 ± 0.03 ms | 1.8×10^7 ion.sec^−1 | three | independent of the applied voltage | > 30 s | 14 out of 22 | –
cyclo[-Gln-(D-Leu-Trp)4-D-Leu-] (cyclo(Q[dL]W[dL]W[dL]W[dL]W[dL]); SMILES CC(C)C[C@H]1NC(=O)[C@H](CCC(N)=O)NC(=O)[C@@H](CC(C)C)NC(=O)[C@H](Cc2c[nH]c3ccccc23)NC(=O)[C@@H](CC(C)C)NC(=O)[C@H](Cc2c[nH]c3ccccc23)NC(=O)[C@@H](CC(C)C)NC(=O)[C@H](Cc2c[nH]c3ccccc23)NC(=O)[C@@H](CC(C)C)NC(=O)[C@H](Cc2c[nH]c3ccccc23)NC1=O) [10-residue cyclic peptide forming 10 Å pores that transport glucose] | – | – | – | – | – | – | – | – | – | – | – | > 10^7 ions.sec^−1
